Consider 6 molecules from patent US20110166206A1, “UBIQUILIN REGULATION OF PRESENILIN ENDOPROTEOLYSIS, AND SUPPRESSION OF POLYGLUTAMINE-INDUCED TOXICITY IN CELLS” (UNIVERSITY OF MARYLAND BIOTECHNOLOGY INSTITUTE, priority 2005, published 2011).

Square brackets hold non-standard residues; d marks the D form. Peptide text beside a SMILES is read from it. * marks the point of attachment. Nle = CCCC[C@H](N)C(=O)O; Cbz = O=C(OCc1ccccc1)*

The subject of assay [1] is PS1 NTF. In words: Proteasome inhibitor treatment of PS1 inducible cells, PS1 NTF immunoblot. It counts as cell-based. The note with it: 16 h treatment. How it is done:
(§1) (A) PS1 and PS2 inducible cells were treated with various classes of proteasome inhibitors for 16 hours. Afterwards, cell lysates were collected, separated by SDS-PAGE, and analyzed by immunoblotting. PS1 NTF levels and PS2 NTF levels were reduced by treatment with all of the different inhibitors albeit to varying extents.
(§2) PS2 inducible cells were treated for 16 h with 10 uM clasto-lactacystin β-lactone, N-Acetyl-Leu-Leu-Nle-CHO (ALLN), 50 uM epoxomicin, 40 uM MG132, and […]. Afterwards, lysates were collected and the fragment levels were analyzed by SDS-PAGE and immunoblotting.
(§3) First, to rule out that MG132 inhibits another factor involved in PS cleavage, PS1 and PS2 inducible cells were treated with a series of different known proteasome inhibitors including clasto-lactacystin p-lactone, ALLN, epoxomicin, MG132, and MG262. […] While each inhibitor had varying effects on the extent of reduction, PS1 NTF levels were reduced by an average of 1.3-fold and PS2 NTF levels were reduced by an average of 1.4-fold. At first glance the fold reduction appears modest; however, considering that degradation of the PS fragments by the proteasome has also been blocked and that fragment levels are tightly regulated, the reduction in PS fragment levels appears significant. Furthermore, it was considered unlikely that all […] proteasome inhibitors used here caused nonspecific inhibition of an unknown factor involved in PS endoproteolysis. Instead, it was considered that the most straightforward interpretation of the results is that, in accord with the mode of action the drugs, they all inhibit the proteasome, which is involved in PS endoproteolysis.
For orientation: In western blotting, separated proteins are transferred to a membrane and probed.

Assay [2] has as its system PS2 NTF. Kind of assay: Proteasome inhibitor treatment of PS2 inducible cells, PS2 NTF immunoblot. As to conditions: 16 h treatment. Type of assay: cell-based, human. How it is done:
as §1, §2, §3

Assay [3] has as its system PS2 NTF. In words: Proteasome inhibitor wash-out time course with CHX in PS2 stable cells. It counts as cell-based, human. How it is done:
(B) PS2 inducible cells were treated continuously with MG132 or MG262 or the drugs were washed from half the cultures after 7 hours of incubation with the drugs. Immediately after washing, CHX was added to all of the cultures to inhibit protein synthesis. Lysates were collected at two hour time points thereafter and the PS fragment levels were analyzed by SDS-PAGE and subsequent immunoblotting. […] Please note that because PS2 expression was not been induced with PonA, the FL protein is not detectable. The filter was reprobed with anti-p27 antibody to monitor recovery of proteasome activity. p27 has a half-life of two hours; therefore once proteasome inhibition is relieved the level of p27 begins to decline (third panel, right), whereas under constant proteasome inhibition its levels remain steady (third panel, left), serving as an important control.
(C) Densitometric analysis was used to quantify the extent of increase in PS2 NTF levels in conditions of constant proteasome inhibition and upon removal of proteasome inhibition. At time=0 the NTF levels in the washed sample is equal to that of MG132 treated sample; however, NTF levels quickly begin to […], whereas in the MG132 treated samples PS2 NTF levels stay steady.
PS2 inducible cells were grown in two sets on […]. Both sets were treated with MG132 or MG262 (also called Z-Leu-Leu-Leu-B(OH)2, Boston Biocem). 7 h later, the drugs were washed off one set by rinsing twice with warm 1×PBS and replacing with fresh DMEM supplemented with 10% FBS, allowing the proteasomes to recover. Also at that point, cyclohexamide (final cont. […]) was added to all dishes. Lysates were collected at two hour time points and the fragment levels were analyzed by SDS-PAGE and subsequent immunoblotting.
To directly address whether the proteasome is responsible for endoproteolysis of PS2, another time course experiment utilizing proteasome inhibitors was devised. […]

Assay [4] has as its system PS1 and PS2 NTF and CTF. Kind of assay: MG132 treatment of UBQLN-transfected PS1 and PS2 stable cell lines, fragment immunoblot. Type of assay: cell-based. The note with it: proteasome inhibitor treatment. How it is done: FIG. 3. […] (A) PS1 cells lines that were either not induced (lanes 1 and 3) or induced with PonA (lanes 2 and 4) and either left untransfected (lanes 1 and 2) or transfected with UBQLN1 expression plasmids (lanes 3 and 4) were treated for 7 h with MG132 after which protein lysates were collected and analyzed by immunoblotting. […] For clarification, if UBQLN did increase the turnover rate then by blocking degradation, turnover would be stopped and PS fragment levels would be similar, or increase, relative to that of untransfected cells. […] Densitometric analysis was used to quantify the extent of reduction. Each experiment was repeated more than three times and similar trends were observed.
(B) Same experiment and results as described in (A) except that PS2 inducible cell lines were used to examine PS2 NTF and CTF levels. […] UBQLN exerts greater effects on PS2 probably because it interacts more strongly with PS2, see [43].
HeLa and HEK293 cells were grown in DMEM supplemented with 10% FBS. PS1 and S2 inducible cell lines were generated by transfection of the pERV-expressing HEK293 cell line (Stratgene, IaIolla, Calif.) with FL human PS2 cDNA under the control of ponasteroneA (PonA)-inducible cassette in plasmid pEGSH (Stratagene). Stable integration of the pEGSH plasmid was achieved by selection for hygromycin resistance. […]

Assay [5] relates to endogenous PS1 NTF. In words: UBQLN overexpression in wild-type HEK293 cells, endogenous PS1 NTF immunoblot. It counts as cell-based. The note with it: normal HEK293 cells. As for the experimental part:
(C) Endogenous PS fragment levels were analyzed in HEK293 cells that were transfected with increasing amounts of UBQLN1 or UBQLN2 expression plasmids. Equivalent amounts of protein lysates were separated by 10% SDS-PAGE and immunoblotted with anti-PS1 NTF antibody. The filter was then reprobed with anti-ubiquilin antibody to ensure overexpression of UBQLN and with an anti-actin antibody to ensure equal protein loading. Overexpression of UBQLN decreases PS1 NTF levels and the extent of reduction was quantified again by densitometric analysis. Graph is quantification of untransfected and […] UBQLN cDNA plasmid transfected lanes.
Preparation of protein lysates, SDS-PAGE and immunoblotting of proteins were described previously. Primary antibodies used were rabbit anti-PS2 loop and rabbit anti-PS2 NH,-terminus, both raised to GST-PS2 fusion proteins; rabbit anti-ubiquilin [43] which reacts with UBQLN1 and UBQLN2 polypeptides; rat anti-PS1 NH2,-terminus (Chemicon International, Temecula, Calif.); rabbit anti-PS1 loop raised to GST-PS1 fusion proteins; goat anti-p27 and goat anti-actin (Santa Cruz Biotechnology, Santa Cruz, Calif.); mouse monoclonal anti-tubulin (Sigma-Aldrich, St. Louis, Mo.); rabbit anti-nicastrin (Abeam, Cambridge, Mass.), rabbit anti-Pen-2 (Zymed, San Francisco, Calif.); and rabbit anti-Aph-la (Covance, Berkeley, Calif.). […]

Regarding `CCCC[C@@H](C=O)NC(=O)[C@H](CC(C)C)NC(=O)[C@H](CC(C)C)NC(C)=O` [ALLN, N-Acetyl-Leu-Leu-Nle-CHO] (Ac-Leu-Leu-[Nle]-aldehyde), the “PS1 NTF levels” value in assay [1] was “reduced”. Moreover, in assay [2], the “PS2 NTF levels” value is recorded as “reduced”.
For `CC(C)C[C@@H](C=O)NC(=O)[C@H](CC(C)C)NC(=O)[C@H](CC(C)C)NC(=O)OCc1ccccc1` [MG132] (Cbz-Leu-Leu-Leu-aldehyde), in assay [1], the “PS1 NTF levels” value was “reduced”. Further, the “rise in PS2 NTF levels after inhibitor washed out” value in assay [3] (12 hours after wash-out, CHX added) turned out to be 1.8 fold. The “PS2 NTF levels under continuous inhibitor” value in assay [3] (inhibitor present for the continuous duration) is reported as “remained relatively constant”. In assay [4], the “PS fragment levels, MG132 treated vs MG132 untreated cells” value is “reduced PS fragment levels”. Also, the “PS2 NTF levels” value in assay [2] was “reduced”.
As to `CC(C)C[C@H](NC(=O)[C@H](CC(C)C)NC(=O)[C@H](CC(C)C)NC(=O)OCc1ccccc1)B(O)O` [MG262, Z-Leu-Leu-Leu-B(OH)2], the “PS1 NTF levels” value in assay [1] is given as “reduced”. Moreover, the “PS2 fragments after removal of inhibitor” value in assay [3] (proteasomes recover activity) is listed as “notable increase in PS2 fragments”. In addition, in assay [2], the “PS2 NTF levels” value is “reduced”.
With `CC(C)[C@H](O)[C@@]12NC(=O)[C@H](C)[C@@H]1OC2=O` [clasto-lactacystin p-lactone, clasto-lactacystin β-lactone], the “PS1 NTF levels” value in assay [1] is “reduced”. Besides, the “PS2 NTF levels” value in assay [2] is reported as “reduced”.
On to `CC[C@H](C)[C@H](NC(=O)[C@H]([C@@H](C)CC)N(C)C(C)=O)C(=O)N[C@H](C(=O)N[C@@H](CC(C)C)C(=O)[C@@]1(C)CO1)[C@@H](C)O` [epoxomicin], for which the “PS1 NTF levels” value in assay [1] was “reduced”. In addition, the “PS2 NTF levels” value in assay [2] was “reduced”.
On to “UBQLN2: ubiquilin-2, 72% identical to UBQLN1, overexpressed from an expression plasmid”, for which the “reduction of endogenous PS1 NTF levels” value in assay [5] is “approximately 1.7 fold”.
